Reference: patent publication US6984484B1, “Mammalian serine racemase” (The Johns Hopkins University, priority 1999, dated 2006)
One block for each molecule: values may come before it.

Key:
[1] = target: T1, serine racemase (Rattus norvegicus, UniProt Q76EQ0); test: Inhibition of serine racemase by PLP inhibitors and sulfhydryl oxidation; PLP requirement; assay type: biochemical; details: for Effect on enzyme activity (PLP inhibitors): 37° C., pH 8.0, 20 mM L-serine, 2 mM DTT, 10 μM PLP, different concentrations (FIG. 4A)
T1 construct: the rat brain enzyme we have purified; from tissue; host or cells: rat brain (10–14 day old Sprague-Dawley rats)
T1 sequence (Q76EQ0 1-333): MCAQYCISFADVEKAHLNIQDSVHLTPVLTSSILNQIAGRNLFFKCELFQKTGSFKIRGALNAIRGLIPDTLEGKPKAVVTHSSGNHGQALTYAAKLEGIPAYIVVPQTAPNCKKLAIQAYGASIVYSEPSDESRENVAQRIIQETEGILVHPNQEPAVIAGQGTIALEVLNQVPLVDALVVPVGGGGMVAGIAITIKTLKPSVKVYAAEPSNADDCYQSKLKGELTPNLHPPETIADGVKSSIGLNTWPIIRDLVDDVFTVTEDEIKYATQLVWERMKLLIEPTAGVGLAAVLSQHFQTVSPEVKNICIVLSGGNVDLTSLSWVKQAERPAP
Description: FIG. 4. inhibition of serine racemase by PLP inhibitors and sulfhydryl oxidation. FIG. 4A. Enzyme activity was monitored at 37° C. in a medium containing 50 mM Tris-HCl (pH 8.0), 20 mM L-serine, 40–100 μg/ml purified enzyme, 1 mM EDTA, 2 mM DTT, 10 μM pyridoxal 5′-phosphate and different concentrations of either aminooxyacetic acid (◯) or hydroxylamine (●). FIG. 4B. Reaction medium and conditions were as described in A, except that DTT was omitted from the last step of the enzyme preparation. The enzyme was preincubated for 10 minutes in the presence of different concentrations of oxidized glutathione (GSSG).
D-serine formation was monitored by a chemiluminescent assay that specifically detects D-serine. Racemase activity was performed in the presence of 50 mM Tris-HCl (pH 8.0), 18 μl enzyme extract, 1 mM EDTA, 2 mM DTT, 15 μM pyridoxal 5′-phosphate (PLP), and 20 mM L-serine. After 0.5 to 8 hours incubation at 37° C., the reaction was terminated by the addition of trichloroacetic acid (TCA) to a final concentration of 5%. Blanks employed boiled enzyme extract. The precipitated protein was removed by centrifugation, and the supernatant was extracted 2 times with 1 ml of water-saturated diethyl ether to remove TCA. D-serine concentration was determined by incubation of the samples with D-amino acid oxidase, which specifically degrades D-amino acids, generating an α-keto acid, NH3 and hydrogen peroxide (16).
The generation of hydrogen peroxide was quantitated by the use of peroxidase and luminol, which emits light. A 10 μl sample aliquot was added to 100 μl of medium containing 100 mM Tris-HCl (pH 8.8), 10 U/ml peroxidase, and 8 μM luminol. After a 10 to 20 minute delay required to decrease the nonspecific luminol luminescence, 10 μl of D-amino acid oxidase (75 U/ml) were added, and the tubes were gently mixed with a pipette tip. Maximum luminescence was recorded after 10 to 15 minutes at room temperature using a Monolight 2010 luminometer (Analytical Luminescence Laboratory). The amount of D-serine in each sample was calculated by comparison with standard curves. The measurements were reliable in the range of 50 to 2000 pmol D-serine per sample. […] Alternatively, amino acid enantiomers were separated by high performance liquid chromatography (HPLC) using a carbon 18 reverse phase column (RP18 Spheri-5, 22 cm×4.6 mm, Perkin Elmer) with fluorimetric detection after derivatization with L-Boc-cys and OPA, as described (17). The results obtained with chemiluminescent assay were identical to those obtained using HPLC. […]
We wondered whether conversion of L to D-serine might be a by-product of a different enzyme activity with non-enzymatic racemization giving rise to D-serine. Accordingly, we monitored by HPLC levels of L and D-serine at different incubation times (Table 2). […]

[2] = target: NMDA receptor "glycine site" (Homo sapiens, UniProt Q05586); details: reference 14; cited from earlier work
[3] = target: T1, serine racemase; test: Racemization of L-serine over time, L- and D-serine by HPLC; assay type: biochemical
Description: (§1) The generation of hydrogen peroxide was quantitated by the use of peroxidase and luminol, which emits light. A 10 μl sample aliquot was added to 100 μl of medium containing 100 mM Tris-HCl (pH 8.8), 10 U/ml peroxidase, and 8 μM luminol. After a 10 to 20 minute delay required to decrease the nonspecific luminol luminescence, 10 μl of D-amino acid oxidase (75 U/ml) were added, and the tubes were gently mixed with a pipette tip. Maximum luminescence was recorded after 10 to 15 minutes at room temperature using a Monolight 2010 luminometer (Analytical Luminescence Laboratory). The amount of D-serine in each sample was calculated by comparison with standard curves. The measurements were reliable in the range of 50 to 2000 pmol D-serine per sample. […] Alternatively, amino acid enantiomers were separated by high performance liquid chromatography (HPLC) using a carbon 18 reverse phase column (RP18 Spheri-5, 22 cm×4.6 mm, Perkin Elmer) with fluorimetric detection after derivatization with L-Boc-cys and OPA, as described (17). The results obtained with chemiluminescent assay were identical to those obtained using HPLC.
We wondered whether conversion of L to D-serine might be a by-product of a different enzyme activity with non-enzymatic racemization giving rise to D-serine. Accordingly, we monitored by HPLC levels of L and D-serine at different incubation times (Table 2). Increases in formation of D-serine are paralleled by stoichiometric decreases in levels of L-serine, making it unlikely that L-serine is converted to any other compound by the enzyme.

[4] = target: T1, serine racemase; test: Substrate specificity of serine racemase; assay type: biochemical; details: for Specific activity / % control: 20 mM L-amino acids; for Specific activity: 37° C., pH 8.0, 8 h, HPLC; for % control: activity relative to L-serine, 8 h; for Racemase activity with the amino acid: purified enzyme
Description: as §1
The presence of trace amounts of D-serine in the commercial L-serine reagent generates high blank values. Thus, the stock solution of L-serine (100 mM) was routinely pre-treated for 3 days with 30 units of D-amino acid oxidase and 500 units of catalase to remove any D-serine contaminant. The enzymes were precipitated by the addition of 5% TCA. After removal of TCA by extraction with diethyl ether, the L-serine solution was neutralized with NaOH and could be used without further purification, being virtually free of any D-serine contaminant. The same purification procedure was applied for L-alanine and L-threonine.
Additionally, we examined the purified enzyme for the presence of other enzyme activities which might indirectly contribute to D-serine formation. We found no evidence for serine: pyruvate aminotransferase activity, as L-serine levels were not altered in the presence of pyruvate. […] There is no evidence for serine dehydratase activity which would be associated with a marked decrease in L-serine levels.

[5] = target: T1, serine racemase; test: Absorption spectra of purified serine racemase; details: 70 μg/ml enzyme preincubated 10 minutes with 1 mM AOAA (FIG. 5)
Description: FIG. 5. Absorption spectra of purified serine racemase. Purified enzyme (70 μg/ml) was preincubated for 10 minutes in medium containing 10 mM KPi (pH 7.2), 2 mM DTT, 1 mM EDTA, 10 μM PLP, either in the absence (Control) or in the presence of 1 mM aminooxyacetic acid (AOAA). The distinct peaks of absorbance at 420 and 340 nm were not observed in the presence of buffer alone or when bovine serum albumin was used instead of serine racemase.
For most applications the purified protein was further concentrated using centriplus 30. Protein concentration was determined with Coomassie plus protein assay reagent (Pierce). Enzyme-bound PLP was determined at room temperature by recording the absorbance of the purified protein in the range of 500 to 280 nm using a Lambda Bio spectrophotometer (Perkin Elmer).
Examination of the absorption spectrum of the enzyme confirms the importance of PLP. […] The peak at 420 nm, corresponding to a Schiff's base complex of PLP with an active site lysine, is abolished by treatment with AOAA (FIG. 5).

[6] = time 0, 4 mM L-serine, 40 μg/ml purified enzyme, 37° C.

Molecule: NO [hydroxylamine]
Effect on enzyme activity (PLP inhibitors) [1]: inhibit enzyme activity

Molecule: N[C@H](CO)C(=O)O [D-serine]
Potency relative to glycine at the glycine site [2]: up to three times more potent than glycine

[D-sertne] [3, 6]: 0.0007 mM
[L-serine] [3, 6]: 4.00 mM
[D-sertne] ([3]; time 0.5 h): 0.042 mM
[L-serine] ([3]; time 0.5 h): 3.96 mM
[D-sertne] ([3]; time 1 h): 0.101 mM
[L-serine] ([3]; time 1 h): 3.93 mM
[D-sertne] ([3]; time 4 h): 0.342 mM
[L-serine] ([3]; time 4 h): 3.65 mM
Specific activity [4]: 4.8 µmol/mg/h
% control [4]: 100%
Molecule: N[C@@H](CO)C(=O)O [L-serine]

Enzyme activity after dialysis without PLP, on addition of PLP ([1]; dialysis for 16 hours against 1,000 volumes of purification buffer without PLP): can be restored by the addition of PLP
Molecule: Cc1ncc(COP(=O)(O)O)c(C=O)c1O [PLP, pyridoxal 5′-phosphate]

Effect on enzyme activity (PLP inhibitors) [1]: inhibit enzyme activity
Absorption peak at 420 nm of the enzyme (Schiff's base complex of PLP) [5]: abolished
Molecule: NOCC(=O)O [Aminooxyacetic acid, aminooxyacetic acid]

Molecule: oxidized glutathione
Effect on enzyme activity (sulfhydryl oxidation) ([1]; DTT omitted, enzyme preincubated for 10 minutes with different concentrations (FIG. 4B)): markedly reduces enzyme activity

Specific activity [4]: 0 µmol/mg/h
% control [4]: 0%
Racemase activity with the amino acid [4]: no activity
Molecule: N[C@@H](CC(=O)O)C(=O)O [L-aspartate]

Specific activity [4]: 0.012 µmol/mg/h
Molecule: C[C@H](N)C(=O)O [L-alanine]

Specific activity [4]: 0 µmol/mg/h
Racemase activity with the amino acid [4]: no activity
Molecule: C[C@@H](O)[C@H](N)C(=O)O [L-threonine]
